Experimental data taken from patent US11090275B2, “Compositions comprising cannabidiol and second therapeutic agents for the treatment of cancer” (JAY PHARMA, INC., priority 2015, dated 2021).
Read-outs that look alike come from different tables or passages of the source.

Columns and labels:
MCF-7 cells = assay: XTT cell viability, MCF-7 cells; type: cell-based; details: cannabidiol at 5 μM or more, 24h
Experimental: (§1) human HL-60, myeloblastic leukemia and CCRF-CEM, acute lymphoblastic leukemia cell line were cultured in RPMI-1640 supplemented with 10% (v/v) heat-inactivated fetal calf serum, 2 mM L-glutamine, 100U/ml penicillin and 100 μg/ml streptomycin. MCF-7, breast cancer and A-172, glioblastoma cell lines were cultured in DMEM supplemented with 10% (v/v) heat-inactivated fetal calf serum, 2 mM L-glutamine, 100U/ml penicillin and 100 μg/ml streptomycin. Cultures were maintained at 37° C. in a humidified atmosphere with 5% CO2 and maintained in exponential phase by transfer to fresh medium every 2-3 days. Experiments were conducted in serum free medium and 5% or 10% FCS medium. The trypanblue dye exclusion method was used for cell counting performed using a hemocytometer under light microscope.

Mcl-1 = assay: Western blot of Mcl-1 in CCRF-CEM cells; type: cell-based, human; details: 20 μM cannabidiol, by 3h of treatment
Experimental: Cells washed twice with ice cold PBS and lysed in RIPA buffer (50 mM Tris-HCl, 0.1% NP-40, 1 mM DTT, 0.25M sucrose, 2 mM MgCl2, pH 7.4) for 30 min on ice. After centrifugation, the post-nuclear supernatant containing the cell soluble fraction were loaded on to a 12% SDS-PAGE gel. After electrophoresis, the gels were blotted onto a PVDF membrane (Bio-Rad, Hercules, Calif.), blocked with 5% (w/v) milk for overnight at 4° C. temperature, washed briefly in Tris-Buffered Saline Tween-20 (TBST), and then probed overnight at 4° C. with the anti-mouse human anti-MC1-1 and calreticulin (CRN) primary antibodies. Primary antibody binding was detected with anti-mouse IgG conjugated to horseradish peroxidase (Jackson Immunoresearch, Avondale, Pa.), and made visible by enhanced chemiluminescence (ECL) (Biological Industries, Israel), according to manufacturer's instructions. Antibodies against MCl-1 and calreticulin (CRN) were purchased from Santa Cruz, Calif., USA.

A-172 cells = assay: XTT cell viability, A-172 cells; type: cell-based, human; details: cannabidiol at 5 μM or more, 48h
Experimental: as §1

CCRF-CEM cells [1] = assay: Morphological quantification of apoptosis (acridine orange/ethidium bromide), CCRF-CEM; type: cell-based, human; details: serum free and 5% FCS medium, 24h
Experimental: (§2) for determination of apoptosis, cells were harvested (650 g, 7 min) and stained with acridine orange/ethidium bromide at a final concentration of 0.05 mg/ml. This method allows distinguishing between live, necrotic and apoptotic cells (FIG. 11). […] At least 100 cells were counted under a fluorescence microscope and the percentage of affected cells was calculated.

HL-60 cells [2] = assay: XTT cell viability, HL-60 cells; type: cell-based, human; details: for IC50: Homo sapiens
Experimental: as §1

CCRF-CEM cells [3] = assay: XTT cell viability, CCRF-CEM cells; type: cell-based, human; details: cannabidiol at 5 μM or more, 24h
Experimental: as §1

HL-60 tumor = assay: Mouse xenograft model transplanted with HL-60 cells; type: in vivo; details: 5 mg/kg CBD, 10 mg/kg CL, alone and combination, peritumoral; days 7 through 14
Experimental: NOD/SCID mice were bred and housed at animal facility of Ben-Gurion University of the Negev, Israel. All animals were used between 7-8 weeks old of age. For induction of tumor, mice were irradiated with 2.7 Gy X ray radiation for 2 min. The following 5 hours, mice were injected with 1 million viable HL-60 cells on right flank of mice. Mice were monitored for tumorigenesis. Tumors were measured during 14 days and their volumes (mm^3) were calculated as (d^2XD)/2 (where d is the shortest and D is the longest diameter of the tumor in mm). […] The injection was repeated once a day, 5 days per week, and tumor volumes were checked twice a week until the vehicle died and the remained animals were sacrificed.

HL-60 cells [4] = assay: Morphological quantification of apoptosis (acridine orange/ethidium bromide), HL-60; type: cell-based, human; details: 5% FCS medium, 24 and 48h
Experimental: as §2

Structure (SMILES)	number of viable cells (MCF-7 cells)	Mcl-1 expression (Mcl-1)	number of viable cells (A-172 cells)	induction of apoptosis (CCRF-CEM cells [1])	effect on cell viability at very low concentration (HL-60 cells [2]; 0.2 μM, serum free condition, 24h)	sensitivity of cells to CBD (HL-60 cells [2]; 10% FCS medium, 24h)	IC50 (HL-60 cells [2]; HL-60, 24 h, read-out: IC50, cell viability)	IC50 (HL-60 cells [2]; HL-60, 48 h, read-out: IC50 value, cell viability)	number of viable cells (HL-60 cells [2]; cannabidiol at 5 μM or more, 24h and 48 h)	number of viable cells (CCRF-CEM cells [3])	HL-60 tumor growth (HL-60 tumor)	induction of apoptosis (HL-60 cells [4])
C=C(C)[C@@H]1CCC(C)=C[C@H]1c1c(O)cc(CCCCC)cc1O [CBD, Cannabidiol]	significant reduction in the number of viable cells	down regulated	significant reduction in the number of viable cells	dose and time dependent induction of apoptosis	profound effect on reduction of cell viability	less sensitive	0.26 µM	16 µM	significant reduction in the number of viable cells	significant reduction in the number of viable cells	significant suppression	dose and time dependent induction of apoptosis
CCN(CC)CCOc1ccc(C(=C(Cl)c2ccccc2)c2ccccc2)cc1 [clomiphene]											significant suppression	
